This assay relates to rat RT2 glioma cells. The assay is described as follows: MTT growth/toxicity assay of adenovirus-infected RT2 cells exposed to GCV or ACV. Type of assay: cell-based. To be noted: 1-100 microM; for effect of prodrug on cell growth/toxicity (MTT): control AdCMV (empty vector)-infected RT2 cells, 5 days. From the text:
FIG. 2. Mutant HSV-TK75 sensitizes rat RT2 glioma cells to GCV and ACV more efficiently than wild type HSV-TK. Rat RT2 cells were infected with AdCMV (empty vector), AdCMV-TK, or AdCMV-TK75. At 2 days postinfection, cells were trypsinized, serially diluted, seeded in microtiter plates, and exposed to various doses of ACV or GCV. After 5 days, the plates were processed for growth/toxicity by MTT assay. (Contessa et al., 1999). Values were normalized to values from cells that were infected but not treated with GCV or ACV.
RT2 cells (a rat glioma cell line derived from Fischer 344 rats (Wilfong et al. 1973) that form tumors with features typical of human glioblastoma (Mahaley et al, 1977) were cultured in Dulbecco's modified Eagle's medium with 10% fetal bovine serum supplemented with penicillin/strepto-mycin. (Brust et al., 2000). Infected cells were exposed to Zovirax/ACV (manufactured by Glaxo Wellcome, Chapel Hill, N.C.) or GCV (kindly provided by Syntex, Palo Alto, Calif.) added to the medium. Cells were irradiated in medium with a ^60Co γ irradiator (Picker Zonegard V4 M60; Picker Interational, Cleveland, Ohio) set at 1 Gy/minute. Cell viability was determined by the 3-(4,5-dimethylthiazol-2-yl)-2,5-[…] bromide (MTT) assay. (Contessa et al, 1999). Terminal deoxynucleotidyltransferase-mediated deoxyuridine triphosphate nick end labeling assays were carried out with an ApopTag Direct kit from Oncor (Gaithersburg, Md.), according to the manufacturer's instructions, to provide a measurement of apoptosis.
It was subsequently determined whether infection of RT2 cells with the adenovirus expressing mutant HSV-TK 75 was able to predispose RT2 cells to killing by GCV and ACV more efficiently than cells infected with virus expressing wild type HSV-TK. At 2 days postinfection, infected cells were exposed to increasing concentrations (1-100 microM) of either GCV or ACV. As a control, we used an adenovirus(AdCMV) carrying no transgene.

Molecules are shown by their SMILES.

With `Nc1nc2c(ncn2COCCO)c(=O)[nH]1` [ACV, acyclovir], the “effect of prodrug on cell growth/toxicity (MTT)” value is “little to no effect”.

Take `Nc1nc(O)c2ncn(COC(CO)CO)c2n1` [GCV, ganciclovir]: the “effect of prodrug on cell growth/toxicity (MTT)” value is given as “little to no effect”. For the same compound, the “cell killing, comparison of prodrugs” value (AdCMV-TK-infected RT2 cells) was “more effective than with ACV”.

Source of the values: US20010046491A1, “Tumor radiosensitization with mutant thymidine kinase in combination with a prodrug” (priority 2000, published 2001).
